Test results: US8030500B2, “Substituted isoindoles for the treatment and/or prevention of Aβ- related pathologies” (AstraZeneca AB, priority 2008, dated 2011)
Structures can show the parent of a compound that is named as a salt.

biological target: T1, human β-Secretase (Homo sapiens, UniProt P56817); assay: TR-FRET assay (β-secretase enzyme, sBACE-Fc); format: biochemical; settings: soluble human β-secretase (sBACE-Fc), substrate (Europium)[…](Qsy7) 100 nM, pH4.5; read-out: IC50 in TR-FRET assay
T1 construct: soluble part of the human β-Secretase (AA 1-AA 460); Fc domain of IgG1; made in house
T1 sequence (P56817 22-460): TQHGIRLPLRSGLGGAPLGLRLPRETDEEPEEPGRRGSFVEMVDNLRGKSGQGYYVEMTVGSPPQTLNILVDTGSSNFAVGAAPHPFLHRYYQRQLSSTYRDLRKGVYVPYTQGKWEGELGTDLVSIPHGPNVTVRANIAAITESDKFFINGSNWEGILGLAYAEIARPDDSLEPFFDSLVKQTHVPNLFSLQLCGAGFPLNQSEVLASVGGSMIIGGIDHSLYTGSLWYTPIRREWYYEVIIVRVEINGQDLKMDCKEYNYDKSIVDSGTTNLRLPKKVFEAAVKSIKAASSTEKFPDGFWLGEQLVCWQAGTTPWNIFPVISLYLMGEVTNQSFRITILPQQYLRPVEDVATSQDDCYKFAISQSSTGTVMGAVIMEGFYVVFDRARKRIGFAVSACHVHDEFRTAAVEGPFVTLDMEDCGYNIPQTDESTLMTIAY
Method: The β-secretase enzyme used in the TR-FRET is prepared as follows:
The cDNA for the soluble part of the human β-Secretase (AA 1-AA 460) was cloned using the ASP2-Fc10-1-IRES-GFP-neoK mammalian expression vector. The gene was fused to the Fc domain of IgG1 (affinity tag) and stably cloned into HEK 293 cells.
The robotic systems Biomek FX and Velocity 11 were used for all liquid handling and the enzyme and substrate solutions were kept on ice until they were placed in the robotic system. Enzyme (9 μl) was added to the plate then 1 μl of compound in dimethylsulphoxide was added, mixed and pre-incubated for 10 minutes. Substrate (10 μl) was then added, mixed and the reaction proceeded for 15 minutes at room temperature. The reaction was stopped with the addition of Stop solution (7 μl, NaAcetate, pH 9). […] The dimethylsulphoxide control, instead of test compound, defined the 100% activity level and 0% activity was defined by wells lacking enzyme (replaced with reaction buffer).

Question: With COc1ccnc(-c2cccc(C3(c4ccnc(OC)c4)N=C(N)c4c(F)cccc43)c2)c1 (stereo not shown) [Example 38, 4-Fluoro-1-(3-(4-methoxypyridin-2-yl)phenyl)-1-(2-methoxypyridin-4-yl)-1H-isoindol-3-amine] as the molecule, how does the IC50 read?
Answer: 0.43 µM

Question: Which IC50 does the source give for NC1=NC(c2ccncc2)(c2cccc(-c3cncnc3)c2)c2cccc(F)c21 (stereo not shown) [Example 10, 4-Fluoro-1-(pyridin-4-yl)-1-(3-(pyrimidin-5-yl)phenyl)-1H-isoindol-3-amine] here?
Answer: 0.16 µM

Question: With COc1cc(C2(c3cccc(-c4cncnc4)c3)N=C(N)c3c(F)cccc32)cc(F)c1F (stereo not shown) [Example 46, 1-(3,4-Difluoro-5-methoxyphenyl)-4-fluoro-1-(3-(pyrimidin-5-yl)phenyl)-1H-isoindol-3-amine] as the molecule, how does the IC50 read?
Answer: 0.69 µM

Question: COc1cc(C2(c3ccc(F)c(-c4cncnc4)c3)N=C(N)c3c(F)cccc32)ccn1 (stereo not shown) [Example 24, 4-Fluoro-1-(4-fluoro-3-(pyrimidin-5-yl)phenyl)-1-(2-methoxypyridin-4-yl)-1H-isoindol-3-amine] was tested. Which IC50 did it give?
Answer: 0.28 µM

Question: Which IC50 does the source give for COc1c(C)cc(C2(c3ccnc(-c4cncnc4)c3)N=C(N)c3c(F)cccc32)cc1C (stereo not shown) [Example 35, 4-Fluoro-1-(4-methoxy-3,5-dimethylphenyl)-1-(2-(pyrimidin-5-yl)pyridin-4-yl)-1H-isoindol-3-amine] here?
Answer: 0.035 µM

Question: N#Cc1cncc(-c2ccc(F)c(C3(c4ccnc(C(F)(F)F)c4)N=C(N)c4c(F)cccc43)c2)c1 (stereo not shown) [Example 7, 5-(3-(3-Amino-4-fluoro-1-(2-(trifluoromethyl)pyridin-4-yl)-1H-isoindol-1-yl)-4-fluorophenyl)nicotinonitrile] was tested. Which IC50 did it give?
Answer: 2 µM

Question: Which IC50 does the source give for NC1=NC(c2cccc(-c3cncnc3)c2)(c2ccnc(C(F)(F)F)c2)c2cccc(F)c21 (stereo not shown) [Example 20, 4-Fluoro-1-(3-(pyrimidin-5-yl)phenyl)-1-(2-(trifluoromethyl)pyridin-4-yl)-1H-isoindol-3-amine] here?
Answer: 0.24 µM

Question: NC1=NC(c2cccc(-c3cnccn3)c2)(c2ccnc(C3CC3)c2)c2cccc(F)c21 (stereo not shown) [Example 37, 1-(2-Cyclopropylpyridin-4-yl)-4-fluoro-1-(3-(pyrazin-2-yl)phenyl)-1H-isoindol-3-amine trifluoroacetate] was tested. Which IC50 did it give?
Answer: 0.087 µM

Question: How did the IC50 turn out when COc1ccc(C2(c3ccnc(C(F)(F)F)c3)N=C(N)c3c(F)cccc32)cc1-c1cncnc1 (stereo not shown) [Example 51, 4-Fluoro-1-(4-methoxy-3-(pyrimidin-5-yl)phenyl)-1-(2-(trifluoromethyl)pyridin-4-yl)-1H-isoindol-3-amine] was run?
Answer: 5.6 µM

Question: For N#Cc1cncc(-c2cccc(C3(c4ccnc(C(F)(F)F)c4)N=C(N)c4c(F)cccc43)c2)c1 (stereo not shown) [Example 23, 5-(3-(3-Amino-4-fluoro-1-(2-(trifluoromethyl)pyridin-4-yl)-1H-isoindol-1-yl)phenyl)nicotinonitrile], which IC50 is on record?
Answer: 0.25 µM

Question: How did the IC50 turn out when COc1ccc(C2(c3cccc(-c4cncnc4)c3)N=C(N)c3c(F)cccc32)cc1 (stereo not shown) [Example 17, 4-Fluoro-1-(4-methoxyphenyl)-1-(3-(pyrimidin-5-yl)phenyl)-1H-isoindol-3-amine] was run?
Answer: 0.11 µM

Question: Which IC50 does the source give for N#Cc1cncc(-c2cc(C3(c4ccncc4)N=C(N)c4c(F)cccc43)ccc2F)c1 (stereo not shown) [Example 26, 5-(5-(3-Amino-4-fluoro-1-(pyridin-4-yl)-1H-isoindol-1-yl)-2-fluorophenyl) nicotinonitrile] here?
Answer: 0.46 µM

Question: NC1=NC(c2ccncc2)(c2cccc(-c3cccc(Cl)c3)c2)c2cccc(F)c21 (stereo not shown) [Example 9, 1-(3′-Chlorobiphenyl-3-yl)-4-fluoro-1-(pyridin-4-yl)-1H-isoindol-3-amine] was tested. Which IC50 did it give?
Answer: 0.075 µM

Question: Which IC50 does the source give for Cc1cc(C2(c3ccnc(-c4cncc(F)c4)c3)N=C(N)c3c(F)cccc32)nc(C)c1OC(F)F (stereo not shown) [Example 53, 3-(5-Difluoromethoxy-4,6-dimethyl-pyridin-2-yl)-7-fluoro-3-(5′-fluoro-[2,3′]bipyridinyl-4-yl)-3H-isoindol-1-ylamine] here?
Answer: 0.91 µM

Question: How did the IC50 turn out when COc1ccnc(-c2cc(C3(c4cncnc4)N=C(N)c4c(F)cccc43)ccc2F)c1 (stereo not shown) [Example 19, 4-Fluoro-1-(4-fluoro-3-(4-methoxypyridin-2-yl)phenyl)-1-(pyrimidin-5-yl)-1H-isoindol-3-amine] was run?
Answer: 4.1 µM

Question: COc1cc(C2(c3cccc(-c4cncnc4)c3)N=C(N)c3c(F)cccc32)ccn1 (stereo not shown) [Example 27, 4-Fluoro-1-(2-methoxypyridin-4-yl)-1-(3-(pyrimidin-5-yl)phenyl)-1H-isoindol-3-amine] was tested. Which IC50 did it give?
Answer: 0.4 µM
